The values below are quoted from earlier work in PubChem BioAssay AID1259409 (Chemical Carcinogenesis Research Information System (CCRIS), 2018).

The test system of the data set is rodent chemically induced tumor inhibition, incidence and multiplicity. As to the kind of experiment: CCRIS tumor inhibitor studies.

For `CC(C(=O)O)c1ccc2c(c1)[nH]c1ccc(Cl)cc12` (stereo not given), the “tumour outcome (control, treated, inhibition, significance)” value is 56%, 52%, 7%, not calculated (Carcinogen: 7,12-DIMETHYLBENZ[A]ANTHRACENE, 57-97-6, Dose [Inhibitor]: 0, 0.02% IN 20% FAT DIET CONTAINING 0.5% LINOLEIC ACID BEGINNING 7 D POST CARCINOGEN DOSE AND CONTINUING FOR DURATION OF, Route [Inhibitor]: ORAL, Species: RAT, Strain/Sex: SPRAGUE-DAWLEY/FEMALE, Target Tissue: Type of Lesion: MAMMARY GLAND: ADENOCARCINOMA, Dose [Carcinogen]: 5 MG AT 50-53 DAYS OF AGE, Promoter: NONE USED); 53%, 61%, -15%, not calculated (Carcinogen: 7,12-DIMETHYLBENZ[A]ANTHRACENE, 57-97-6, Dose [Inhibitor]: 0, 0.02% IN 20% FAT DIET CONTAINING 4% LINOLEIC ACID BEGINNING 7 D POST CARCINOGEN DOSE AND CONTINUING FOR DURATION OF S, Route [Inhibitor]: ORAL, Species: RAT, Strain/Sex: SPRAGUE-DAWLEY/FEMALE, Target Tissue: Type of Lesion: MAMMARY GLAND: ADENOCARCINOMA, Dose [Carcinogen]: 5 MG AT 50-53 DAYS OF AGE, Promoter: NONE USED); 69%, 55%, 20%, not calculated (Carcinogen: 7,12-DIMETHYLBENZ[A]ANTHRACENE, 57-97-6, Dose [Inhibitor]: 0, 0.02% IN 20% FAT DIET CONTAINING 12% LINOLEIC ACID BEGINNING 7 D POST CARCINOGEN DOSE AND CONTINUING FOR DURATION OF, Route [Inhibitor]: ORAL, Species: RAT, Strain/Sex: SPRAGUE-DAWLEY/FEMALE, Target Tissue: Type of Lesion: MAMMARY GLAND: ADENOCARCINOMA, Dose [Carcinogen]: 5 MG AT 50-53 DAYS OF AGE, Promoter: NONE USED); 88%, 91%, -3%, not calculated (Carcinogen: 7,12-DIMETHYLBENZ[A]ANTHRACENE, 57-97-6, Dose [Inhibitor]: 0, 0.02% IN HIGH FAT DIET (20% CORN OIL) BEGINNING 7 D POST CARCINOGEN DOSE AND CONTINUING FOR DURATION OF STUDY (STUDY, Route [Inhibitor]: ORAL, Species: RAT, Strain/Sex: SPRAGUE-DAWLEY/FEMALE, Target Tissue: Type of Lesion: MAMMARY GLAND: ADENOCARCINOMA, Dose [Carcinogen]: 5 MG AT 50-53 DAYS OF AGE, Promoter: NONE USED); 47%, 56%, -19%, not calculated (Carcinogen: 7,12-DIMETHYLBENZ[A]ANTHRACENE, 57-97-6, Dose [Inhibitor]: 0, 0.02% IN HIGH FAT DIET (20% CORN OIL) BEGINNING 7 D POST CARCINOGEN DOSE AND CONTINUING FOR DURATION OF STUDY (STUDY, Route [Inhibitor]: ORAL, Species: RAT, Strain/Sex: SPRAGUE-DAWLEY/FEMALE, Target Tissue: Type of Lesion: MAMMARY GLAND: TUMOR, Dose [Carcinogen]: 5 MG AT 50-53 DAYS OF AGE, Promoter: NONE USED); 59%, 83%, -41%, not calculated (Carcinogen: 7,12-DIMETHYLBENZ[A]ANTHRACENE, 57-97-6, Dose [Inhibitor]: 0, 0.02% IN NORMAL FAT DIET (5% CORN OIL) BEGINNING 7 D POST CARCINOGEN DOSE AND CONTINUING FOR DURATION OF STUDY (STUDY, Route [Inhibitor]: ORAL, Species: RAT, Strain/Sex: SPRAGUE-DAWLEY/FEMALE, Target Tissue: Type of Lesion: MAMMARY GLAND: ADENOCARCINOMA, Dose [Carcinogen]: 5 MG AT 50-53 DAYS OF AGE, Promoter: NONE USED).
Take `S=C=NCC(c1ccccc1)c1ccccc1`: the “tumour outcome (control, treated, inhibition, significance)” value runs as follows: (Carcinogen: 4-(METHYLNITROSAMINO)-1-(3-PYRIDYL)-1-BUTANONE, 64091-91-4, Dose [Inhibitor]: 0, 1 UMOL ONCE 2 HR PRIOR TO CARCINOGEN DOSE (STUDY DURATION: 16 WK), Route [Inhibitor]: GAVAGE, Species: MOUSE, Strain/Sex: STRAIN-A/FEMALE, Target Tissue: Type of Lesion: LUNG: ADENOMA, Dose [Carcinogen]: 10 UMOL IN 0.1 ML SALINE ONCE, Promoter: NONE USED) 100%, 60%, 40%, p<0.05; (Carcinogen: 4-(METHYLNITROSAMINO)-1-(3-PYRIDYL)-1-BUTANONE, 64091-91-4, Dose [Inhibitor]: 0, 5 UMOL ONCE 2 HR PRIOR TO CARCINOGEN DOSE (STUDY DURATION: 16 WK), Route [Inhibitor]: GAVAGE, Species: MOUSE, Strain/Sex: STRAIN-A/FEMALE, Target Tissue: Type of Lesion: LUNG: ADENOMA, Dose [Carcinogen]: 10 UMOL IN 0.1 ML SALINE ONCE, Promoter: NONE USED) 100%, 45%, 55%, p<0.05.
For the compound `COc1cc([C@@H]2Oc3cc([C@H]4Oc5cc(O)cc(O)c5C(=O)[C@@H]4O)ccc3O[C@H]2CO)ccc1O`, the “tumour outcome (control, treated, inhibition, significance)” value runs as follows: (Carcinogen: 1,2-DIMETHYLHYDRAZINE, 540-73-8, Dose [Inhibitor]: 0, 0.1% IN DIET FOR 32 WK BEGINNING AT 24 D OF AGE (STUDY DURATION: 32 WK), Route [Inhibitor]: ORAL, Species: RAT, Strain/Sex: SPRAGUE-DAWLEY/MALE, Target Tissue: Type of Lesion: COLON: ADENOCARCINOMA, Dose [Carcinogen]: 20 MG/KG 1/WK FOR 15 WK BEGINNING ON D 37, Promoter: NONE USED) 19/22 (86%), 11/16 (69%), 20%, not calculated; (Carcinogen: 1,2-DIMETHYLHYDRAZINE, 540-73-8, Dose [Inhibitor]: 0, 0.1% IN DIET FOR 32 WK BEGINNING AT 24 D OF AGE (STUDY DURATION: 32 WK), Route [Inhibitor]: ORAL, Species: RAT, Strain/Sex: SPRAGUE-DAWLEY/MALE, Target Tissue: Type of Lesion: SMALL INTESTINE: ADENOCARCINOMA, Dose [Carcinogen]: 20 MG/KG 1/WK FOR 15 WK BEGINNING ON D 37, Promoter: NONE USED) 18/22 (82%), 9/16 (56%), 32%, not calculated; (Carcinogen: N-BUTYL-N-(4-HYDROXYBUTYL)NITROSAMINE, 3817-11-6, Dose [Inhibitor]: 0, 1000 PPM IN DIET FOR 8 WK (STUDY DURATION: 32 WK), Route [Inhibitor]: ORAL, Species: MOUSE, Strain/Sex: ICR/MALE, Target Tissue: Type of Lesion: URINARY BLADDER: PAPILLOMA, Dose [Carcinogen]: 500 PPM IN DRINKING WATER FOR 6 WK BEGINNING 1 WK AFTER FIRST INHIBITOR DOSE, Promoter: NONE USED) 2/44 (5%), 1/34 (3%), 40%, not significant; (Carcinogen: N-BUTYL-N-(4-HYDROXYBUTYL)NITROSAMINE, 3817-11-6, Dose [Inhibitor]: 0, 1000 PPM IN DIET FOR 8 WK (STUDY DURATION: 32 WK), Route [Inhibitor]: ORAL, Species: MOUSE, Strain/Sex: ICR/MALE, Target Tissue: Type of Lesion: URINARY BLADDER: TRANSITIONAL CELL CARCINOMA, Dose [Carcinogen]: 500 PPM IN DRINKING WATER FOR 6 WK BEGINNING 1 WK AFTER FIRST INHIBITOR DOSE, Promoter: NONE USED) 17/44 (39%), 4/34 (12%), 69%, p< 0.01; (Carcinogen: N-BUTYL-N-(4-HYDROXYBUTYL)NITROSAMINE, 3817-11-6, Dose [Inhibitor]: 0, 1000 PPM IN DIET FOR 24 WK BEGINNING 1 WK POST FINAL CARCINOGEN DOSE (STUDY DURATION: 32 WK), Route [Inhibitor]: ORAL, Species: MOUSE, Strain/Sex: ICR/MALE, Target Tissue: Type of Lesion: URINARY BLADDER: TRANSITIONAL CELL CARCINOMA, Dose [Carcinogen]: 500 PPM IN DRINKING WATER FOR 6 WK BEGINNING 1 WK AFTER FIRST INHIBITOR DOSE, Promoter: NONE USED) 17/44 (39%), 5/30 (17%), 56%, p< 0.05. The outcome was 2/44 (5), 5/30 (17%), -240%, not significant (Carcinogen: N-BUTYL-N-(4-HYDROXYBUTYL)NITROSAMINE, 3817-11-6, Dose [Inhibitor]: 0, 1000 PPM IN DIET FOR 24 WK BEGINNING 1 WK POST FINAL CARCINOGEN DOSE (STUDY DURATION: 32 WK), Route [Inhibitor]: ORAL, Species: MOUSE, Strain/Sex: ICR/MALE, Target Tissue: Type of Lesion: URINARY BLADDER: PAPILLOMA, Dose [Carcinogen]: 500 PPM IN DRINKING WATER FOR 6 WK BEGINNING 1 WK AFTER FIRST INHIBITOR DOSE, Promoter: NONE USED) and 52%, 7.7%, p=0.001 (Carcinogen: N-Butyl-N-(4-hydroxybutyl)nitrosamine, 3817-11-6, Dose [Inhibitor]: 200 mg/kg bw 1 wk before carcinogen, dose duration 51 wk, study duration 56 wk, Route [Inhibitor]: Oral (gavage) 5 d/wk, Species: Mouse, Strain/Sex: ICR/Male, Target Tissue: Type of Lesion: Urinary Bladder: carcinoma, Dose [Carcinogen]: 0, 0.5% in drinking water for 6 wk, Promoter: None).
